In ChEMBL document CHEMBL2069206 (J Med Chem, 2012):

How the values were obtained:
[1] = molecular target: T1, Adenosine receptor A3 (Homo sapiens, UniProt P0DMS8); test: Displacement of [125I]I-AB-MECA from human A3 adenosine receptor expressed in CHO cells after 60 mins gamma counter; format: cell-based
T1 sequence (P0DMS8 whole entry): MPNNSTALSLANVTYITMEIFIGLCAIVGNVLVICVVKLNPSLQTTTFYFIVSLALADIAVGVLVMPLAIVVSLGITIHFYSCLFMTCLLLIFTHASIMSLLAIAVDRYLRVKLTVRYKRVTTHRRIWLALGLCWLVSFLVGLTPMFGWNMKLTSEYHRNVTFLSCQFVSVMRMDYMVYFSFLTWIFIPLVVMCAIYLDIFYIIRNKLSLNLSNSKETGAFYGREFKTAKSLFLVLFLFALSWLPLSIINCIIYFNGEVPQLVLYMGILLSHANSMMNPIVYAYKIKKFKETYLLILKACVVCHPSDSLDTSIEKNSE

[2] = molecular target: T2, Adenosine receptor A1 (Homo sapiens, UniProt P30542); test: Displacement of 3[H]R-PIA from human A1 adenosine receptor expressed in CHO cells after 60 mins by Liquid scintillation analysis; format: cell-based
T2 sequence (P30542 whole entry): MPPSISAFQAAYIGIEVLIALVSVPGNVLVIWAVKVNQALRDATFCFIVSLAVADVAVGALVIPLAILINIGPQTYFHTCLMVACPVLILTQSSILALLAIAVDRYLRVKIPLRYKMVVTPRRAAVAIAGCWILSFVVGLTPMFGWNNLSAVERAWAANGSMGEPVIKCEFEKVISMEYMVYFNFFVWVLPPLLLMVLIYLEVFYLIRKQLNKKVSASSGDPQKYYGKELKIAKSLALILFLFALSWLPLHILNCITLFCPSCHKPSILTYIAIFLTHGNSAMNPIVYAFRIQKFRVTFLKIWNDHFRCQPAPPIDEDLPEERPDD

[3] = molecular target: T3, Adenosine receptor A2a (Homo sapiens, UniProt P29274); test: Agonist activity at human A2A adenosine receptor expressed in CHO cells assessed as stimulation of forskolin-induced cAMP accumulation after 30 mins relative to NECA; format: functional, cell-based
[4] = molecular target: T3, Adenosine receptor A2a; test: Displacement of 3[H]CGS21680 from human A2A adenosine receptor expressed in HEK293 cells after 60 mins by Liquid scintillation analysis; format: cell-based
[5] = molecular target: T4, Adenosine receptor A1 (Homo sapiens) (UniProt P30542); test: Agonist activity at human A1 adenosine receptor expressed in CHO cells assessed as inhibition of forskolin-induced cAMP accumulation after 30 mins relative to NECA; format: functional, cell-based
T4 sequence (whole entry): T2 sequence (P30542 whole entry)

[6] = molecular target: T3, Adenosine receptor A2a; test: Agonist activity at human A2A adenosine receptor expressed in CHO cells assessed as stimulation of forskolin-induced cAMP accumulation after 30 mins; format: functional, cell-based
[7] = molecular target: T4, Adenosine receptor A1 (Homo sapiens); test: Partial agonist activity at human A1 adenosine receptor expressed in CHO cells assessed as inhibition of forskolin-induced cAMP accumulation after 30 mins relative to NECA; format: functional, cell-based
[8] = molecular target: Adenosine receptor A2a (Rattus norvegicus) (UniProt P30543); settings: HEK293, 10 uM
[9] = molecular target: T5, Adenosine receptor A1 (Rattus norvegicus) (UniProt P25099); settings: CHO, 10 uM
T5 sequence (whole entry): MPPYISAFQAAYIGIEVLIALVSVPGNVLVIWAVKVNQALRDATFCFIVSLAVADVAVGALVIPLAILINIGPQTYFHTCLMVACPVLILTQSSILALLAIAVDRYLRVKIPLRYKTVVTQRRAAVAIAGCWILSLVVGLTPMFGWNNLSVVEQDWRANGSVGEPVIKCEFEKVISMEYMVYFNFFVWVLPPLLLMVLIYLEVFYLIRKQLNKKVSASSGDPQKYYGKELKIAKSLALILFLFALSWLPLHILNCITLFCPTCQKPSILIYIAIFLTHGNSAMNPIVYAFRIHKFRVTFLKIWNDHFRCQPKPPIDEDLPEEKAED

[10] = molecular target: T2, Adenosine receptor A1; test: Partial agonist activity at human A1 adenosine receptor expressed in CHO cells assessed as inhibition of forskolin-induced cAMP accumulation after 30 mins; format: functional, cell-based

T3 sequence (P29274 whole entry): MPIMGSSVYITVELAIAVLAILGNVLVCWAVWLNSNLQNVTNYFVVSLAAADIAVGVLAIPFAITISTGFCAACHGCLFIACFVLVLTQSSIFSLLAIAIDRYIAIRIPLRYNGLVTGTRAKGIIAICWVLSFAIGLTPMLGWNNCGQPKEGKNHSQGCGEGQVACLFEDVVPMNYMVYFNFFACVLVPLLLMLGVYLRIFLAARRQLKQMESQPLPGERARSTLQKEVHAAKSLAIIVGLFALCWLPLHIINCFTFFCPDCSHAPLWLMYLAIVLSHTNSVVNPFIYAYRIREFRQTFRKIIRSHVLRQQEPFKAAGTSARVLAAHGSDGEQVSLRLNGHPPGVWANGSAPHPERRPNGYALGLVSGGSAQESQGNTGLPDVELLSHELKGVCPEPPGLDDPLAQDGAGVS
Adenosine receptor A2a (Rattus norvegicus), sequence (P30543 whole entry): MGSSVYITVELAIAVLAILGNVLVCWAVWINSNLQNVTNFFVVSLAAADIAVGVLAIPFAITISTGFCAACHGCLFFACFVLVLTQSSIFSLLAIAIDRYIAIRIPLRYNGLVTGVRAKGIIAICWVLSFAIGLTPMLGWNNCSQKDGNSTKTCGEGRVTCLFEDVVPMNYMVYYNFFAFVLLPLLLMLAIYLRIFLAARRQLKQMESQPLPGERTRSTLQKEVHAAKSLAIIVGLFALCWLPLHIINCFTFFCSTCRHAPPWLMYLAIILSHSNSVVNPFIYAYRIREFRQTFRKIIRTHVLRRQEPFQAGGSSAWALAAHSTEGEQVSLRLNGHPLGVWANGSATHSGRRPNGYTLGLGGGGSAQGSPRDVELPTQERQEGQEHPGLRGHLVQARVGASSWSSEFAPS

| SMILES | Ki [1] [nM] | Ki [2] [nM] | Ki [4] [nM] | Efficacy [5] [%] | EC50 [6] [nM] | other results |
| --- | --- | --- | --- | --- | --- | --- |
| Nc1ncnc2c1ncn2[C@@H]1O[C@H](C(=O)NC2CCCC2)[C@@H](O)[C@H]1O | 70 | 27 | 650 | 92.5 | 225 | Efficacy [3]: 75% |
| Nc1ncnc2c1ncn2[C@@H]1O[C@H](C(=O)NCC(F)(F)F)[C@@H](O)[C@H]1O | 700 | […] |  |  |  | Efficacy [7]: 73.4% |
| CCNC(=O)[C@H]1O[C@@H](n2cnc3c(N)ncnc32)[C@H](O)[C@@H]1O |  |  |  | 100 |  |  |
| NCCNC(=O)[C@H]1O[C@@H](n2cnc3c(N)ncnc32)[C@H](O)[C@@H]1O |  |  |  |  |  | inhibition [8]: > 10%; inhibition [9]: > 10% |
| Nc1ncnc2c1ncn2[C@@H]1O[C@H](C(=O)NC2CCC2)[C@@H](O)[C@H]1O | 70 |  | 34 |  | 26.8 | Efficacy [7]: 65.2%; Efficacy [3]: 99%; EC50 [10]: 15.1 nM |
| NCCCNC(=O)[C@H]1O[C@@H](n2cnc3c(N)ncnc32)[C@H](O)[C@@H]1O |  | > 10000 |  |  |  |  |
| Nc1ncnc2c1ncn2[C@@H]1O[C@H](C(=O)NC2CC2)[C@@H](O)[C@H]1O | 180 | 1.9 | 50 | 95.4 | 22.9 |  |
